{
  "source": "paper PMC8788626",
  "about": "(Lung cancer (Amsterdam, Netherlands), 2017)",
  "key": {"[1]": {"experiment": "Plasma pharmacokinetics of dacomitinib and metabolite PF-05199265", "format": "in vivo, patients", "settings": "for Pre-dose (0 h) plasma concentration, mean (CV%) / Pre-dose (0 h) plasma concentration, median: Cycle 0, Day 4, 45 mg dacomitinib q12 h"}, "QT interval": {"test_system": "QT interval", "experiment": "ECG analysis of QTc interval change from baseline", "format": "in vivo, patients"}, "EGFR-mutant lung cancer": {"test_system": "EGFR-mutant lung cancer", "settings": "first-line therapy, standard daily dosing, ARCHER 1050; cited from earlier work"}, "EGFR-mutant lung cancers": {"test_system": "EGFR-mutant lung cancers", "settings": "first line, subset with EGFR-mutant lung cancers; cited from earlier work"}, "[2]": {"test_system": "lung cancers harboring EGFR T790M", "format": "in vivo, patients", "settings": "Cohort A"}, "[3]": {"settings": "continuous daily dosing; cited from earlier work"}, "[4]": {"test_system": "T790M-negative, otherwise molecularly unselected advanced NSCLC", "experiment": "Phase 2 study of intermittent pulse dacomitinib, efficacy, Cohort B", "format": "in vivo, patients", "settings": "95% CI 1.0–3.3 months"}, "[5]": {"test_system": "patients with advanced NSCLC", "settings": "in vivo"}, "[6]": {"settings": "Cycle 0, Day 4, following 6 doses (q12 h) of 45 mg dacomitinib"}, "[7]": {"settings": "Cycle 1, Day 1, following 3 day washout after 6 doses (q12 h) of 45 mg dacomitinib"}, "[8]": {"settings": "Cycle 1, Day 4, following 5 doses (q12 h) of 60 mg dacomitinib"}},
  "note": "Where “and” joins values, the source holds several entries; their conditions need not be identical. Equal values may be shown once.",
  "data": [
    {"smiles": "O=C(/C=C/CN1CCCCC1)Nc1cc2c(Nc3ccc(F)c(Cl)c3)ncnc2cc1O", "note": "[PF-05199265]", "values": [
      {"measurement": "Pre-dose (0 h) plasma concentration, mean (CV%)", "setting": "[1]", "result": "7.1 ng/mL and 7.1 (161) ng/mL"},
      {"measurement": "Pre-dose (0 h) plasma concentration, median", "setting": "[1]", "result": 4.6, "unit": "ng/mL"},
      {"measurement": "AUC0–10, mean (CV%)", "setting": "[1]; [6]", "result": "75.0 (148) ng h/mL"},
      {"measurement": "AUC0–10, median", "setting": "[1]; [6]", "result": 50.8, "unit": "ng·h/mL"},
      {"measurement": "Cmax, mean (CV%)", "setting": "[1]; [6]", "result": "8.5 (150) ng/mL"},
      {"measurement": "Cmax, median", "setting": "[1]; [6]", "result": 5.9, "unit": "ng/mL"},
      {"measurement": "Cmin, mean (CV%)", "setting": "[1]; [6]", "result": "6.8 (157) ng/mL"},
      {"measurement": "Cmin, median", "setting": "[1]; [6]", "result": 4.5, "unit": "ng/mL"},
      {"measurement": "Tmax, median (minimum–maximum)", "setting": "[1]; [6]", "result": "5.6 (0–11.0) hr"},
      {"measurement": "Pre-dose plasma concentration, mean (CV%)", "setting": "[1]; [7]", "result": "3.8 (83) ng/mL"},
      {"measurement": "Pre-dose plasma concentration, median", "setting": "[1]; [7]", "result": 2.8, "unit": "ng/mL"},
      {"measurement": "Pre-dose plasma concentration, mean (CV%)", "setting": "[1]; [8]", "result": "9.0 (93) ng/mL"},
      {"measurement": "Pre-dose plasma concentration, median", "setting": "[1]; [8]", "result": 7.43, "unit": "ng/mL"}
    ]},
    {"smiles": "COc1cc2ncnc(Nc3ccc(F)c(Cl)c3)c2cc1NC(=O)/C=C/CN1CCCCC1", "note": "[dacomitinib]", "values": [
      {"measurement": "upper limits of the 95% CI for the mean change from baseline in QTc (QTcB, QTcF, QTcS)", "setting": "QT interval; all Cycle 0 day 4 time points, 45 mg q12 h", "result": "< 10", "unit": "ms"},
      {"measurement": "effect on cardiac repolarization", "setting": "QT interval; at exposures comparable to steady state of 45 mg daily regimen", "result": "no effects on cardiac repolarization"},
      {"measurement": "median progression-free survival", "setting": "EGFR-mutant lung cancer", "result": 14.7, "unit": "months"},
      {"measurement": "estimated median progression-free survival", "setting": "EGFR-mutant lung cancers", "result": 18.2, "unit": "months"},
      {"measurement": "overall response rate", "setting": "EGFR-mutant lung cancers", "result": 76, "unit": "%"},
      {"measurement": "ORR (overall response rate)", "setting": "[2]; 16 patients, 95% CI 0.2%–30.2%, p-value = 0.15", "result": 6.3, "unit": "%"},
      {"measurement": "median PFS", "setting": "[2]; 95% CI 1.4–4.4 months", "result": 2.3, "unit": "months"},
      {"measurement": "Pre-dose (0 h) plasma concentration, mean (CV%)", "setting": "[1]", "result": 76.4, "unit": "ng/mL"},
      {"measurement": "Pre-dose (0 h) plasma concentration, median", "setting": "[1]", "result": 68.4, "unit": "ng/mL"},
      {"measurement": "Pre-dose (0 h) plasma concentration, mean (CV%)", "setting": "[1]; listed as Dacomitinib", "result": "76.4 (43) ng/mL"},
      {"measurement": "Cmin, mean (CV%)", "setting": "[1]; [6]", "result": "71.3 (39) ng/mL"},
      {"measurement": "Cmin, median", "setting": "[1]; [6]", "result": 65.6, "unit": "ng/mL"},
      {"measurement": "Pre-dose plasma concentration, mean (CV%)", "setting": "[1]; [7]", "result": "32.1 (65) ng/mL"},
      {"measurement": "Pre-dose plasma concentration, median", "setting": "[1]; [7]", "result": 26.9, "unit": "ng/mL"},
      {"measurement": "Pre-dose plasma concentration, mean (CV%)", "setting": "[1]; [8]", "result": "108.1 (39) ng/mL"},
      {"measurement": "Pre-dose plasma concentration, median", "setting": "[1]; [8]", "result": 100, "unit": "ng/mL"},
      {"measurement": "Tmax", "setting": "[1]; human, plasma, oral, 45 mg", "result": 6.1, "unit": "h"},
      {"measurement": "AUC(0-t)", "setting": "[1]; human, plasma, oral, 45 mg, AUC0–10, mean (CV%), Cycle 0, Day 4, following 6 doses (q12 h) of 45 mg dacomitinib", "result": 794, "unit": "ng·h/mL"},
      {"measurement": "AUC(0-t)", "setting": "[1]; human, plasma, oral, 45 mg, AUC0–10, median, Cycle 0, Day 4, following 6 doses (q12 h) of 45 mg dacomitinib", "result": 728, "unit": "ng·h/mL"},
      {"measurement": "Cmax", "setting": "[1]; human, plasma, oral, 45 mg, mean (CV%), Cycle 0, Day 4, following 6 doses (q12 h) of 45 mg dacomitinib", "result": 96.8, "unit": "ng/mL"},
      {"measurement": "Cmax", "setting": "[1]; human, plasma, oral, 45 mg, median, Cycle 0, Day 4, following 6 doses (q12 h) of 45 mg dacomitinib", "result": 90.7, "unit": "ng/mL"},
      {"measurement": "maximum tolerated dose", "setting": "[3]", "result": 45, "unit": "mg daily"},
      {"measurement": "median PFS", "setting": "[4]", "result": 1.6, "unit": "months"},
      {"measurement": "Grade 3 treatment-emergent lymphopenia", "setting": "[5]; human", "result": 13.2, "unit": "%"},
      {"measurement": "frequency of the most frequent treatment-related toxicities (diarrhea, rash, stomatitis, nausea, dry skin, paronychia, fatigue, decreased appetite)", "setting": "[5]; human", "result": "> 20 % of patients"},
      {"measurement": "treatment-related serious adverse events: dehydration", "setting": "[5]; human", "result": 2},
      {"measurement": "treatment-related serious adverse events: diarrhea", "setting": "[5]; human", "result": 2},
      {"measurement": "treatment-related serious adverse events: nausea", "setting": "[5]; human", "result": 1},
      {"measurement": "Grade 3 hypermagnesemia, patients", "setting": "[5]", "result": "three"},
      {"measurement": "number of treatment-related serious adverse events", "setting": "[5]", "result": "five"},
      {"measurement": "patients who discontinued study therapy due to a treatment-related adverse event", "setting": "[5]", "result": "No patients"},
      {"measurement": "patients with at least one treatment-related adverse event", "setting": "[5]", "result": "All patients"},
      {"measurement": "patients with treatment-related serious adverse events", "setting": "[5]", "result": "three"},
      {"measurement": "treatment-related cardiac adverse events", "setting": "[5]", "result": "no treatment-related cardiac adverse events"}
    ]}
  ]
}
